From US8916561B2, “Substituted quinoxaline compounds for the inhibition of PASK” (BioEnergenix, LLC, priority 2011, dated 2014)

Columns and labels:
[1] = biological target: T1, PASK (UniProt #Q96RG2; human recombinant N-terminal GST tagged construct, residues 879-1323) (Homo sapiens, UniProt Q96RG2); experiment: PASK ATP Radiochemical Assay; type: biochemical; settings: 33P-ATP radiochemical assay, Myelin Basic Protein substrate; read-out: IC50 Kinase Domain
T1 construct: human recombinant N-terminal GST tagged construct, residues 879-1323; GST (N); host or cells: insect cells
T1 sequence (Q96RG2 879-1323, stated change not applied): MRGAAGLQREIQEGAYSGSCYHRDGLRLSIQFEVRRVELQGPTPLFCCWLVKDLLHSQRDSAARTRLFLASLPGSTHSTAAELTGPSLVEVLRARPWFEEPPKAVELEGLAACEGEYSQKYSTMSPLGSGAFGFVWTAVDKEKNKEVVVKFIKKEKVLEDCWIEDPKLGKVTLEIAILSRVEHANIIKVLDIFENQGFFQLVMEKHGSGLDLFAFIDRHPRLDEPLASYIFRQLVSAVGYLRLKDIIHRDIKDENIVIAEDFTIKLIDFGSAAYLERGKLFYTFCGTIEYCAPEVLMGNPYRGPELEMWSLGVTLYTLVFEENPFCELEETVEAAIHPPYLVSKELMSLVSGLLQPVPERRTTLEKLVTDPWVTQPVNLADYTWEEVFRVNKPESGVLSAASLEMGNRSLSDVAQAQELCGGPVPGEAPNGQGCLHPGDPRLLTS
Experimental: Purified PASK (UniProt #Q96RG2; human recombinant N-terminal GST tagged construct, residues 879-1323) from insect cells (final concentration 5 nM) is added to freshly prepared Base Reaction Buffer containing 20 mM HEPES (pH 7.5), 10 mM MgCl2, 1 mM EGTA, 0.02% Brij35, 0.02 mg/ml BSA, 0.1 mM Na3VO4, 2 mM DTT, 1% DMSO and Myelin Basic Protein (20 μM final). Test compounds in DMSO are then added and the mixture, followed by delivery of ^33P-ATP (specific activity 0.01 μCi/μl final) to initiate the reaction. The kinase reaction is incubated for 120 min at room temperature. The entire reaction mixture is washed through onto a P81 Phosphocellulose paper and washed three times for 10 minutes in 75 mM phosphoric acid and once in methanol prior to drying and scintillation counting.

[2] = biological target: hPASK (Homo sapiens, UniProt Q96RG2); experiment: Cell assay for hPASK activity, phospho-AKT substrate antibody; type: cell-based; parameters: expressed in transfected cells; host or cells: HEK293T; settings: HEK293T cells transfected with V5-tagged PASK, phospho-AKT substrate antibody Western blot
Chain of hPASK (Q96RG2 whole entry): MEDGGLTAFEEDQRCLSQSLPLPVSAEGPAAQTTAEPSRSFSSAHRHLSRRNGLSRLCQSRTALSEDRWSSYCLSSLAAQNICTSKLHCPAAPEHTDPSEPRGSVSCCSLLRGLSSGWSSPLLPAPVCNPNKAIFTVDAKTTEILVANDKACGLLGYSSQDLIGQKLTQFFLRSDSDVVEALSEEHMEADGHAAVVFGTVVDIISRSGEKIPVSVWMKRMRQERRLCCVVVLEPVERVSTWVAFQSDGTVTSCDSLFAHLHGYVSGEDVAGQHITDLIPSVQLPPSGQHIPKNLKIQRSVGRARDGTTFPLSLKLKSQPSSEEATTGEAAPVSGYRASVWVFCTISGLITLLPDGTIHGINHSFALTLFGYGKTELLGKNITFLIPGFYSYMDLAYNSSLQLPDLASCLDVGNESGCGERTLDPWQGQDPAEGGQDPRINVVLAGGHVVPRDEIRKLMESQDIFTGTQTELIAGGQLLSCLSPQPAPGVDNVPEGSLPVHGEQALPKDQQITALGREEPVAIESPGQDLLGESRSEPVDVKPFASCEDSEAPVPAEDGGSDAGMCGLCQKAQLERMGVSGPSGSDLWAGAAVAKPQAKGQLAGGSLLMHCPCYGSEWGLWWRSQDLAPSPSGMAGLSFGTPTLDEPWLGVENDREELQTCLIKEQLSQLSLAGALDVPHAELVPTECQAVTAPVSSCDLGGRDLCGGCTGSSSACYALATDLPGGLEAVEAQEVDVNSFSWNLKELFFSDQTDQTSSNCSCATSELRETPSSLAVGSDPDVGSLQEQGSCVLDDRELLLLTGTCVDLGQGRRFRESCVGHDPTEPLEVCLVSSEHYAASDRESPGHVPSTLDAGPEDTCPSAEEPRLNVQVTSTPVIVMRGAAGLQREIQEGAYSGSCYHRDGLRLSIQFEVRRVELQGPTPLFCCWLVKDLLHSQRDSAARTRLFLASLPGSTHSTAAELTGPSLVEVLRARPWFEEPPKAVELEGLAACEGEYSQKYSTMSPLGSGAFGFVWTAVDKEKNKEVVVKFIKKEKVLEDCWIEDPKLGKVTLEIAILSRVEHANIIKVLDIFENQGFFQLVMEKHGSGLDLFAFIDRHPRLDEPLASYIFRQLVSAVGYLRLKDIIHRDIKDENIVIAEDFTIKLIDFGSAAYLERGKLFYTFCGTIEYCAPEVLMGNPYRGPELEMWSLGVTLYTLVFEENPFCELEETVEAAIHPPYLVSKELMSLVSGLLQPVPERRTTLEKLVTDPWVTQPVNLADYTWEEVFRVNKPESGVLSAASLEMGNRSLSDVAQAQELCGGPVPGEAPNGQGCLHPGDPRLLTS
Experimental: The assay applies the ability of PASK to autophoshorylate in vivo on the sequence recognized by phospho-Akt substrate antibody (110B7E, Cell Signaling). Cell line HEK293T is transfected with vector (pcDNA 3.1-PASK) expressing V5-tagged wilde-type of PASK. Transfected cells are then treated with putative inhibitors of PASK. Twenty-four hours post treatment cells are lysed and PASK is separated from cellular proteins by immunoprecipitation with V5-conjugated beads (Sigma). PASK is released from immunocomlexes, separated on the SDS-PAGE gel and transferred on nitrocellulose membrane. Fraction of PASK phosphorylated on phospho-AKT Substrate site(s) is determined by probing with phospho-AKT antibody and normalized to total PASK level present in the same immunoprecipitates. We have shown the correlation between phosphorylation of phospho-AKT Substrate sequence and inhibition of PASK activity in vivo.
HEK293T cells are maintained and propagated in 10 cm dish in 10 ml of DMEM/10% FBS, split and re-seeded in 6 well plate (10^6 cells/well) in 2 ml of DMEM/10% FBS. Cells are transfected 18 hours post plating with lug of construct expressing wild-type of hPASK using lipofectamine 2000 according to the manufacturers protocol (Invitrogen). Cells expressing PASK are treated either with DMSO or PASK inhibitors. […] Intensities of the bands are quantitated and data normalized.

[3] = biological target: T2, PASK (Invitrogen) (Homo sapiens, UniProt Q96RG2); experiment: PAS Kinase FRET Assay; type: biochemical; settings: TR-FRET (665 nm/615 nm), Ulight-peptide substrate; read-out: IC50 Kinase Domain
T2 construct: IC50 Kinase Domain; purchased Invitrogen
T2 sequence (Q96RG2 999-1251 limits assumed): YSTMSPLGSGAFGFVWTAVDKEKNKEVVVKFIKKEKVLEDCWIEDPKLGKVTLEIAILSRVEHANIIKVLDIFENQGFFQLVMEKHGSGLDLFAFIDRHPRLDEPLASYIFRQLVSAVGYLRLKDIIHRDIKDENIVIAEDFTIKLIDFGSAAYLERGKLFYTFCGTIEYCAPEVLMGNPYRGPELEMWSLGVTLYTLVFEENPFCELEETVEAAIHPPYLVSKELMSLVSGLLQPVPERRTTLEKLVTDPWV
Source text: The aim of the FRET assay is to determine the inhibition potential of test compounds on targeted kinase. This assay platform provides a homogenous screening method for measuring kinase activity by quantitating the amount of phospho-substrate in solution following a kinase reaction.
In the presence of kinase and ATP, the Ulight-peptide is phosphorylated and captured by an anti-phospho-substrate antibody, which brings the Eu chelate donor and Ulight acceptor dyes into close proximity. Upon excitation at 340 nm, the Eu chelate transfers its energy to the Ulight dye, resulting in a fluorescent light emission at 665 nm.
Titration of kinase at 1 mM ATP was achieved via the following protocol. After making serial three-fold dilutions of PASK (Invitrogen) in reaction buffer across the plate; 5 μl of kinase dilution and 5 μl substrate/ATP mix were added to the wells of the white Optiplate-384 (PerkinElmer). The contents of the plate were incubated at RT for 1 h. The reaction was stopped by adding 5 μl of stop solution to each test well followed by mixing and incubation at RT for 10 minutes. 5 μl of detection mix (detection antibody diluted in detection butler) was added; the contents of the plate were mixed and then incubated in the dark for 1 hour at RT. The signal was recorded at TR-FRET mode (665 nm/615 nm), The results were graphed to calculate the EC50.
Titration of ATP at the EC50 concentration of kinase to determine ATP Km,app. was performed using the following method. After making serial dilutions of ATP (Invitrogen), 5 μl of ATP dilution and 5 μl substrate/kinase mix were added to the wells of the white Optiplate-384 (PerkinElmer). The contents of the plate were and incubated at RT for 1 h. The reaction was stopped by adding 5 μl of stop solution to each test well followed by mixing and incubation at RT for 10 minutes. 5 μl of detection mix (detection antibody diluted in detection buffer) was added; the contents of the plate were mixed and then incubated in the dark for 1 hour at RT. The signal was recorded at TR-FRET mode (665 nm/615 nm). The results were graphed to calculate the EC50 as the ATP Km,app.
Compound screening was done via the following method. 10 mM stock solution of test compound in DMSO was prepared by dissolving test compound in DMSO at RT for 1 hour, and then sonicating at 100% output for 8 minutes. If compound is not soluble under this condition, it was diluted to 3 mM. Kinase reaction buffer was prepared containing 10 mM MgCl2, 50 mM HEPES, 1 EGTA, 0.01% TWEEN-20, 2 mM WT. Serial dilutions of the test compounds were prepared at 4× final assay concentrations using Freedom EVO200® dispensing system as follows: 12×10^−5M, 4×10^−5 M, 1.33×10^−5M, 4.44×10^−6 M. 1.48×10^−6 M, 4.92×10^−7 M, 1.65×10^−7 M, […], 1.82×10^−8 M, 6.09×10^−9, 2.03×10^−9 M. Test compounds (2.5 μl at 4× the final assay concentration) was added to wells using Freedom EVO200® dispensing system. As a positive control, 2.5 μl of positive compound was added to assay wells, and 2.5 μl of DMSO to assay wells as vehicle control. Kinase solution was prepared in reaction buffer at 2× final assay concentration. Kinase solution (5 μl) was added to each well of the assay plate. The substrate and ATP solution was prepared in kinase reaction buffer at 4× final assay concentration. The kinase reaction was started by adding 2.5 μl of substrate+ATP mix solution to each well of the assay plate. The plate is mixed on a plate shaker; then covered and allowed to react for 2 hours in the dark at 25° C. without shaking. The reaction was stopped by adding 5 μl of stop solution to each test well followed by mixing and incubation at RT for 10 minutes in the dark. 5 μl of detection mix (detection antibody diluted in detection buffer) was added; the contents of the plate were mixed and then incubated in the dark for 1 hour at RT. The signal was recorded at TR-FRET mode (665 nm/615 nm).

Measured: IC50

CC(C)N(C)c1nc2cc(C(N)=O)ccc2nc1-c1ccc(F)cc1 [Example 1, 2-(4-Fluorophenyl)-3-(isopropyl(methyl)amino)quinoxaline-6-carboxamide]
≤ 10 µM: all assays above
